Measurements published in patent US9757399B2, “Butyrylcholinesterase inhibitors” (priority 2006, dated 2017).

Tests used:
[1] = molecular target: T1, butyrylcholinesterase (Equus caballus, UniProt P81908); experiment: biochemical; format: biochemical, horse; conditions: for Change in Absorbance at 412 nm/Minute (Normalized): 10^−7M, normalized to 2-chlorophenyl-di-n-butyl phosphate set as 1.0; for Change in Absorbance at 412 nm/Minute (Not Normalized): compound final concentration 10^−7M; for inhibition at 100 µM: read-out: % inhibition of BuChase
T1 construct: butyrylcholinesterase (from horse serum); purchased Sigma; host or cells: horse serum (natural source)
T1 sequence (P81908 whole entry): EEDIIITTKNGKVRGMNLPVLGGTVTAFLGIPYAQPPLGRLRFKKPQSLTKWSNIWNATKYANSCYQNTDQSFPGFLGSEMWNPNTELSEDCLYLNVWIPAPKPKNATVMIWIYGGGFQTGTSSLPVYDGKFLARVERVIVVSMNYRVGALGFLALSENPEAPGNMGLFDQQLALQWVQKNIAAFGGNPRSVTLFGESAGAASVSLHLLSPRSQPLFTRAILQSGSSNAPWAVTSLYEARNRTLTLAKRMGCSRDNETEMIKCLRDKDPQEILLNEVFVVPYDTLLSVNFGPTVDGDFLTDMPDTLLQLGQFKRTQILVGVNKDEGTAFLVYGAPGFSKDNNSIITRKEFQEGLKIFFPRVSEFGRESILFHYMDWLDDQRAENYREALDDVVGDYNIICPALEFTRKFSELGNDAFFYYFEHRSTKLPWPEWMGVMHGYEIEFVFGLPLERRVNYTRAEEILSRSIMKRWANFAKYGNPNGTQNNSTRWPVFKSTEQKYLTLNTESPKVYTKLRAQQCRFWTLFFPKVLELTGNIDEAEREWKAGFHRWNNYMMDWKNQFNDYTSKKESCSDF
Protocol: (§1) Cholinesterase activity measurements were performed essentially according to the method of Ellman (Biochemical Pharmacology 7:88-90, 1961). The composition of the assay mixture was 0.1 M sodium phosphate, pH 7.5, 0.033 M DTNB, 0.001 M MgCl2, and 100 μg/mL of BSA containing appropriate amounts of substrate and inhibitor. Each assay was initiated by the addition of substrate and the activity quantified by measuring the formation of the thionitrobenzoate anion at 412 nm at 37° C. Methanol used to solubilize the dialkyl phenyl phosphates [1% (v/v) final concentration] had no inhibitory effect on either enzyme.
. The results were obtained by pre-incubating the enzyme with the compound (final concentration 10^−7M) for various periods of time and measuring the remaining enzyme activity. The results are shown as the change in absorbance at 412 nm/minute. In order to simplify the results from all the compounds, the enzyme activities were normalized to 2-chlorophenyl-di-n-butyl phosphate which was set as 1.0. Since two different preparations of enzyme were used, the normalization procedure would adjust for any differences in the amount of enzyme. […]. In other cases, the compound's inhibitory activity is not as strong and assay conditions were modified to increase the inhibitor concentration.
Table 4: Rates of inactivation of butyrylcholinesterase by exemplary compounds: Change in Absorbance at 412 nm/Minute. (ND=No Data)

[2] = molecular target: T2, Acetylcholinesterase (from electric eel) (Electrophorus electricus, UniProt O42275); experiment: Acetylcholinesterase activity, Ellman assay after pre-incubation with inhibitor; format: biochemical; conditions: 100 μM compound, 60 minutes at 25° C.
T2 construct: Acetylcholinesterase (from electric eel); purchased Sigma; host or cells: electric eel (natural source)
T2 sequence (O42275 24-633): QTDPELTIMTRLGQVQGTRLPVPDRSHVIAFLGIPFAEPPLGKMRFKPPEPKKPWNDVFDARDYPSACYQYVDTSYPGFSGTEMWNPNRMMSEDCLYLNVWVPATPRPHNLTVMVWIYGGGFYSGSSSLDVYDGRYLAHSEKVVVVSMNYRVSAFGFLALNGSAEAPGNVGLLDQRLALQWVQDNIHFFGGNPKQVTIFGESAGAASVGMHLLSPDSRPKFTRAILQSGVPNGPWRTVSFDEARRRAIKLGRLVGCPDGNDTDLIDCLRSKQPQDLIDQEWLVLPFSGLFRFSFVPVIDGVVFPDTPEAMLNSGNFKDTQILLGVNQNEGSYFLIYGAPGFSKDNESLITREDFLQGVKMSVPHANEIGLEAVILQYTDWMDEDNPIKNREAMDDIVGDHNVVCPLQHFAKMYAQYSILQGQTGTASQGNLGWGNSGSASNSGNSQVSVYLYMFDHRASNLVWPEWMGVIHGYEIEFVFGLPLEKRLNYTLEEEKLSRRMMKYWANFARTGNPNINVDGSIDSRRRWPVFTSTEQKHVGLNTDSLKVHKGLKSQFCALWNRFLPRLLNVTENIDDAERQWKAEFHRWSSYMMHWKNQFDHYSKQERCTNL
Protocol: (§2) Acetylcholinesterase (from electric eel), butyrylcholinesterase (from horse serum), DTNB, butyrylthiocholine, acetylthiocholine, and BSA were purchased from Sigma. The dialkyl 2-chlorophenyl (and 4-chlorophenyl) phosphates were solubilized in reagent grade methanol.
as §1
(§3) Butyrylcholinesterase was pre-incubated at room temperature with inhibitor in the assay cocktail minus substrate for varying periods of time at 25° C. Substrate was then added and the activity measured as described above. The relative rates of enzyme inactivation were determined by plotting enzyme activity versus time of pre-incubation with inhibitor. Results were expressed as the rate constant for the rate of enzyme inactivation. In the case of AcChase, results were expressed as the % of activity remaining relative to the enzyme incubated only with solvents.
The first series of experiments determined the effect of the dialkyl 2-chlorophenyl (and 4-chlorophenyl) phosphates on both AcChase and BuChase. None of the compounds had any inhibitory effect on AcChase (See Table 1). In Table 1, AcChase was incubated with 100 μM of the indicated phenyl phosphate for 60 minutes at 25° C. and then assayed as described above. Results were expressed as the % activity relative to enzyme incubated with solvent ±SD (standard deviation).

[3] = molecular target: T3, butyrylcholinesterase (from horse serum) (Equus caballus, UniProt P81908); experiment: Rates of inactivation of butyrylcholinesterase, Ellman assay; format: biochemical; conditions: for k, rate constant of inactivation of butyrylcholinesterase ± S.E.M: 100 nM inhibitor, 25° C.; for effect on BuChase activity under standard conditions: standard conditions (100 nM inhibitor)
T3 construct: butyrylcholinesterase (from horse serum); purchased Sigma; host or cells: horse serum (natural source)
T3 sequence (P81908 whole entry): as the sequence (P81908 whole entry) above
Protocol: as §2, §1, §3
. […] In Table 2, BuChase was incubated for increasing periods of time at 25° C. with 100 nM inhibitor then assayed for activity as described above. Rate constants were calculated from a plot of enzyme activity vs. time of inhibitor exposure. […]. Slopes were calculated by linear regression analysis.

[4] = molecular target: T3, butyrylcholinesterase (from horse serum); experiment: as above; format: biochemical; conditions: inhibitor at 10^−4M
[5] = molecular target: T1, butyrylcholinesterase; experiment: Phosphorylation of BuChase by 14C-labeled inhibitor, autoradiography; parameters: species or system horse; conditions: 14C-labeled compound, native gel
Protocol: The cholinesterases were pre-incubated with ^14C-di-ethyl-2-chlorophenyl phosphate and then fractionated by native gel electrophoresis as described above. The proteins were fixed in the gel with 10% acetic acid/30% methanol. The fixative was removed and replaced with 100 mL of EN^3HANCE. The gel was incubated for 60 minutes at room temperature with gentle agitation and then placed in 5% PEG and incubated for 30 minutes at room temperature with gentle agitation. The gel was then dried down on a piece of 3 MM filter paper, exposed to X-ray film at −80° C. for 2 weeks, and then developed.

[6] = molecular target: T1, butyrylcholinesterase; experiment: Native gel electrophoresis activity stain, BuChase; format: biochemical, horse; conditions: pre-incubation with inhibitor
Protocol: (§4) Enzyme activity was also measured by native gel electrophoresis. For cholinesterase activity, proteins (10 μg of both acetylcholinesterase and butyrylcholinesterase) were fractionated on Novex precast 10% Tris glycine gels (Invitrogen). Enzyme activity was detected by first incubating the gels in a solution of 5 mM substrate then staining with a solution of copper sulfate/potassium ferricyanide.
(§5) Using native gel electrophoresis, both AcChase and BuChase activity was detected. Pre-incubation of AcChase with di-ethyl 2-chlorophenyl phosphate had no effect on AcChase activity (FIG. 1).

[7] = molecular target: T4, acetylcholinesterase (Electrophorus electricus, UniProt O42275); experiment: Native gel electrophoresis activity stain, AcChase; format: biochemical, electric eel; conditions: pre-incubation with inhibitor
T4 construct: Acetylcholinesterase (from electric eel); purchased Sigma; host or cells: electric eel (natural source)
T4 sequence (O42275 24-633): as the sequence (O42275 24-633) above
Protocol: as §4, §5

CCCCCCP(=O)(OCCCC)Oc1ccccc1Cl (stereo not shown)
Change in Absorbance at 412 nm/Minute (Normalized) [1]: 14.94
Change in Absorbance at 412 nm/Minute (Not Normalized) [1]: 10.04

CCCCCCNP(=O)(OCCCC)Oc1ccccc1Cl (stereo not shown)
Change in Absorbance at 412 nm/Minute (Normalized) [1]: 1.024
Change in Absorbance at 412 nm/Minute (Not Normalized) [1]: 0.688

CCCCOP(=O)(Oc1ccc(Cl)cc1Cl)Oc1ccc(Cl)cc1Cl
inhibition at 100 µM ([1]; compound at 10^−4 M): 63.4%
inhibitory under standard conditions ([1]; standard conditions (10^−7M)): Not inhibitory

O=P(Oc1ccccc1)(Oc1ccccc1)Oc1ccccc1Cl
inhibition at 100 µM ([1]; compound at 10^−4 M): 29.4%
inhibitory under standard conditions ([1]; standard conditions (10^−7M)): Not inhibitory

CCCCOP(=O)(OCCCC)Oc1cccc([N+](=O)[O-])c1
% Inhibition of BuChase after 2 minutes ([1]; standard conditions (10^−7M), 2 minutes): 100%
% Inhibition of BuChase, immediate ([1]; standard conditions (10^−7M)): 83%

CCCCOP(=O)(OCCCC)Oc1ccccc1Br
Change in Absorbance at 412 nm/Minute (Normalized) [1]: 1.366
Change in Absorbance at 412 nm/Minute (Not Normalized) [1]: 0.918

CC(C)COP(=O)(OCC(C)C)Oc1ccccc1Cl [Di-iso-butyl-, Di-i-butyl 2-Chlorophenyl phosphate]
% Activity ± SD (acetylcholinesterase activity relative to enzyme incubated with solvent) [2]: 96.18 ± 0.023%
k, rate constant of inactivation of butyrylcholinesterase ± S.E.M [3]: 60.83 ± 5.8 min^−1 × 10^−2

CCCCOP(=O)(OCCCC)Oc1ccccc1F
Change in Absorbance at 412 nm/Minute (Normalized) [1]: 2.604
Change in Absorbance at 412 nm/Minute (Not Normalized) [1]: 1.75

CCCCOP(=O)(OCCCC)Oc1ccc(Br)cc1
Change in Absorbance at 412 nm/Minute (Normalized) [1]: 0.737
Change in Absorbance at 412 nm/Minute (Not Normalized) [1]: 0.495

CCCCOP(=O)(OCCCC)Oc1cccc(Br)c1
Change in Absorbance at 412 nm/Minute (Normalized) [1]: 6.220
Change in Absorbance at 412 nm/Minute (Not Normalized) [1]: 4.18

CCCCP(=O)(CCCC)Oc1ccccc1Cl
Change in Absorbance at 412 nm/Minute (Normalized) [1]: 1.018
Change in Absorbance at 412 nm/Minute (Not Normalized) [1]: 0.684

CCCCCOP(=O)(OCCCCC)Oc1ccccc1Cl [Di-n-pentyl-, 2-Chlorophenyl di-n-pentyl phosphate]
activity at 100 µM ([2]; read-out: % Activity ± SD (acetylcholinesterase activity relative to enzyme incubated with solvent)): 101.7 ± 0.03%
k, rate constant of inactivation of butyrylcholinesterase ± S.E.M [3]: 30.44 ± 3.3 min^−1 × 10^−2

CC(C)OP(=O)(Oc1ccccc1Cl)OC(C)C [Di-iso-propyl-, 2-Chlorophenyl di-i-propyl phosphate]
% Activity ± SD (acetylcholinesterase activity relative to enzyme incubated with solvent) [2]: 97.82 ± 0.045%
effect on BuChase activity under standard conditions [3]: no effect
% Inhibition of butyrylcholinesterase [4]: 85.3% Inhibition

CCCCOP(=O)(OCCCC)Oc1cccc(F)c1
Change in Absorbance at 412 nm/Minute (Normalized) [1]: 0.696
Change in Absorbance at 412 nm/Minute (Not Normalized) [1]: 0.468

CCOP(=O)(OCC)Oc1ccccc1Cl [Di-ethyl-, 2-Chlorophenyl diethyl phosphate]
covalent modification of BuChase (FIG. 2B) [5]: covalently modified
% Activity ± SD (acetylcholinesterase activity relative to enzyme incubated with solvent) [2]: 96.77 ± 0.019%
k, rate constant of inactivation of butyrylcholinesterase ± S.E.M [3]: 6.64 ± 2.1 min^−1 × 10^−2
effect on BuChase activity, native gel (FIG. 2A) [6]: nearly completely inhibited
effect on AcChase activity, native gel (FIG. 1) [7]: no effect

CCCCP(=O)(Oc1ccccc1Cl)Oc1ccccc1Cl
Change in Absorbance at 412 nm/Minute (Normalized) [1]: 0.48
Change in Absorbance at 412 nm/Minute (Not Normalized) [1]: 0.32

CCCCCCNP(=O)(Oc1ccccc1Cl)Oc1ccccc1Cl
inhibition at 100 µM ([1]; compound at 10^−4 M): 73.9%
inhibitory under standard conditions ([1]; standard conditions (10^−7M)): Not inhibitory

CCCCOP(=O)(OCCCC)Oc1ccc(Cl)cc1 [drawing 55]
Change in Absorbance at 412 nm/Minute (Normalized) [1]: 0.338
Change in Absorbance at 412 nm/Minute (Not Normalized) [1]: 0.227

CCCCOP(=O)(OCCCC)Oc1ccccc1C
type of inhibition [1]: Reversible inhibitor: Ki = 2.1 μM

COP(=O)(OC)Oc1ccccc1Cl [Di-methyl-, 2-Chlorophenyl dimethyl phosphate]
% Activity ± SD (acetylcholinesterase activity relative to enzyme incubated with solvent) [2]: 101.9 ± 0.019%
effect on BuChase activity under standard conditions [3]: no effect
% Inhibition of butyrylcholinesterase [4]: 48.9% Inhibition

CCCCOP(=O)(OCCCC)Oc1ccc([N+](=O)[O-])cc1
% Inhibition of BuChase, immediate ([1]; standard conditions (10^−7M)): 100% Inhibition (Immediate under standard conditions)

CCCCOP(=O)(OCCCC)Oc1ccc(Cl)cc1Cl
% inhibition of BuChase after 1 minute ([1]; standard conditions (10^−7M), 1 minute): 92% inhibition after 1 minute under standard conditions

CCCCOP(=O)(OCCCC)Oc1ccc(Cl)cc1 [Di-n-butyl-(4Cl), Di-n-butyl 4-chlorophenyl phosphate]
% Activity ± SD (acetylcholinesterase activity relative to enzyme incubated with solvent) [2]: 97.61 ± 0.006%
k, rate constant of inactivation of butyrylcholinesterase ± S.E.M [3]: 13.01 ± 2.0 min^−1 × 10^−2

CCCOP(=O)(OCCC)Oc1ccccc1Cl [Di-n-propyl-, 2-Chlorophenyl di-n-propyl phosphate]
% Activity ± SD (acetylcholinesterase activity relative to enzyme incubated with solvent) [2]: 97.38 ± 0.028%
k, rate constant of inactivation of butyrylcholinesterase ± S.E.M [3]: 20.21 ± 2.2 min^−1 × 10^−2

CCCCOP(=S)(OCCCC)Oc1ccccc1Cl
% inhibition of BuChase ([1]; compound at 10^−4 M): 14.6%
inhibitory under standard conditions ([1]; standard conditions (10^−7M)): Not Inhibitory
